Results from US9642865B2, “Angiogenesis inhibitors” (THE JOHNS HOPKINS UNIVERSITY, priority 2004, dated 2017).

Key:
[1] = tested on: human umbilical vein endothelial cells (HUVEC); assay: HUVEC proliferation, [3H]-thymidine incorporation; format: cell-based; conditions: guanine 10 μM and 20 μM
Description: (§1) 32,000 FDA drug approvals obtained by Freedom of Information Act requests were condensed to 3,400 unique drug formulations. Drugs were purchased from Sigma, Spectrum Chemicals, MP Biomedicals, The Johns Hopkins Hospital pharmacy, Biomol, and Tocris. 10 mM stock solutions were made using DMSO, water, or ethanol as solvents. Drugs were arrayed in 96-well plates and screened at a final concentration of 10 μM. Cells were incubated with drug for 36 h and proliferation was measured by pulsing with 1 μCi [^3H]-thymidine for 8 h followed by absorption onto glass filters and scintillation counting.
(§2) IC50 measurements were carried out in triplicate, and analyzed using four parameter logarithmic analysis. Values are presented+/−the standard error of the mean. P-values were calculated using the Student's T-test.
A library of 1,850 FDA-approved drugs and 600 drugs that entered the clinic via approval in a foreign country or phase II clinical trials was created. To discover new angiogenesis inhibitors among known drugs, the library was screened for inhibition of human umbilical vein endothelial cells (HUVEC) using [^3H]-thymidine incorporation. […] After eliminating known cytotoxic drugs such as taxol and colchicine or drugs that are restricted to topical use, several drugs remained. […]

[2] = tested on: Jurkat T cells; assay: Jurkat T-cell proliferation, [3H]-thymidine incorporation; format: cell-based
Description: as §1, §2
MPA is an immunosuppressive drug widely used to prevent rejection of transplanted organs (Lipsky, J. J. (1996) Lancet 348, 1357-1359). The mechanism of action in the immune system is well established-MPA inhibits de novo biosynthesis of purines in T and B lymphocytes (Allison, A. C. & Eugui, E. M. (2000) Immunopharmacology 47, 85-118). […] Thus, a comparison of HUVEC to Jurkat T cells for sensitivity to MPA in the presence and absence of guanine was carried out. […] Addition of guanine at or above 20 μM rendered Jurkat T cells resistant to MPA. […]

[3] = tested on: HUVEC; assay: Cell cycle analysis of HUVEC; format: cell-based, human; conditions: 1 μM MPA + 50 μM guanosine
From the text: It has been shown that MPA causes cell cycle arrest in activated T and B lymphocytes at G1 (Laliberte, J., Yee, A., Xiong, Y. & Mitchell, B. S. (1998) Blood 91, 2896-2904). Therefore, the effect of MPA on endothelial cell cycle progression was examined.

## COc1c(C)c2c(c(O)c1C/C=C(\C)CCC(=O)O)C(=O)OC2 [MPA, 6-(4-hydroxy-6-methoxy-7-methyl-3-oxo-1,3-dihydroisobenzofuran-5-yl)-4-methyl-hex-4-enoic acid]
[1]
  effect of exogenous guanine on MPA inhibition of HUVEC proliferation: partially reversed
[2]; guanine 10 μM
  effect of exogenous guanine on MPA inhibition of Jurkat T-cell proliferation: unaffected
[2]; guanine 20 μM and 50 μM
  effect of exogenous guanine on MPA inhibition of Jurkat T-cell proliferation: completely reversed
[3]
  effect of guanosine on the cell cycle effect of MPA: completely reversed
